Here are results for nine molecules from patent US20110077251A1, “NOVEL 17 BETA LUPANE DERIVATIVES” (priority 2009, published 2011).

Assay [1] concerns HIVIIIB. The assay can be described thus: HIV-1 replication in MT2 cell line with 30% human serum (RT activity in supernatant). The conditions noted are these: Human immunodeficiency virus 1, 120 h, MT2 cells, day 5 after infection, average if tested more than once, read-out: MT2 (HIVIIIB) with human serum IC50 range. In kind it is cell-based. Here is the method:
(§1) HIV-1 Replication in MT2 cell line with and without 30% human serum: The cells are infected at a Multiciplicity of Infection (MOI) of 0.5 for 3 h and then washed twice with complete media to remove residual virus. Cells are then resuspended at 0.5×10^6/ml in complete medium (RPMI, 10% FBS, 1% sodium pyruvate), and seeded into 96-well plates (6.25×10^4/well). The cells are cultured in the presence or absence of various concentrations of test compounds in serial dilutions for 3 days at 37° C. The test compounds are serially diluted in complete medium supplemented or not with 30% human serum. After 3 days, 100 μL of cultured medium with cells are replaced with 120 μL of freshly diluted test compounds in complete medium containing or not 30% Human serum. The level of HIV-1 replication is determined at days 5 after infection by the presence of viral RT activity in harvested supernatant fluid. The IC50 values for the virus replication are determined by using GRAPHPAD PRISM software.
(§2) The IC50 of the compounds tested in accordance with the HIV replication activity assay MT2 (HIVIIIB) with or without human serum are represented in Table 6.

The subject of assay [2] is HIVIIIB. The assay can be described thus: HIV-1 replication in MT2 cell line without human serum (RT activity in supernatant). In kind it is cell-based. The conditions noted are these: Human immunodeficiency virus 1, 120 h, MT2 cells, day 5 after infection, average if tested more than once, read-out: MT2 (HIVIIIB) IC50 range. As to the method: as §1, §2

Molecules are shown by their SMILES. Some results are limits rather than exact numbers.

A word on the IC50: it is the concentration at which inhibition is half-maximal. In the case of `C=C(C)[C@@H]1CC[C@]2(NS(C)(=O)=O)CC[C@]3(C)[C@H](CC[C@@H]4[C@@]5(C)CC[C@H](OC(=O)CC(C)(C)C(=O)O)C(C)(C)[C@@H]5CC[C@]43C)[C@@H]12` [Cpd 12-1, 3β-O-(3′,3′-Dimethylsuccinyl)-17β-methylsulfonylamino-28-norlup-20(29)-ene], the 50% inhibitory concentration (IC50) in the assay with HIVIIIB [1] and in the assay with HIVIIIB [2] was less than 199 nM in each case.
For `C=C(C)[C@@H]1CC[C@]2(NC(N)=O)CC[C@]3(C)[C@H](CC[C@@H]4[C@@]5(C)CC[C@H](OC(=O)CC(C)(C)C(=O)O)C(C)(C)[C@@H]5CC[C@]43C)[C@@H]12` [Cpd 11-10, 3β-O-(3′,3′-Dimethylsuccinyl)-17β-ureido-28-norlup-20(29)-ene], the IC50 with HIVIIIB [1] and in the assay on HIVIIIB [2] was less than 199 nM throughout.
For the molecule `C=C(C)[C@@H]1CC[C@]2(NC(=O)N3CCN(C)CC3)CC[C@]3(C)[C@H](CC[C@@H]4[C@@]5(C)CC[C@H](OC(=O)CC(C)(C)C(=O)O)C(C)(C)[C@@H]5CC[C@]43C)[C@@H]12` [Cpd 11-9, 3β-O-(3′,3′-Dimethylsuccinyl)-17β-[(4-methyl-piperazine-1-carbonyl)-amino]-28-norlup-20(29)-ene], the half-inhibitory concentration (IC50) with HIVIIIB [1] and in the assay with HIVIIIB [2] was less than 199 nM each time.
As to `C=C(C)[C@@H]1CC[C@]2(NC(=O)N3CCOCC3)CC[C@]3(C)[C@H](CC[C@@H]4[C@@]5(C)CC[C@H](OC(=O)CC(C)(C)C(=O)O)C(C)(C)[C@@H]5CC[C@]43C)[C@@H]12` [Cpd 11-8, 3β-O-(3′,3′-Dimethylsuccinyl)-17β-[(morpholine-4-carbonyl)-amino]-28-norlup-20(29)-ene], the concentration for half-maximal inhibition (IC50) in the assay with HIVIIIB [1] and in the assay with HIVIIIB [2] was less than 199 nM each time.
For `C=C(C)[C@@H]1CC[C@]2(NC(=O)NCc3ccccc3)CC[C@]3(C)[C@H](CC[C@@H]4[C@@]5(C)CC[C@H](OC(=O)CC(C)(C)C(=O)O)C(C)(C)[C@@H]5CC[C@]43C)[C@@H]12` [Cpd 11-6, 3β-O-(3′,3′-Dimethylsuccinyl)-17β-[N′-(benzyl)ureido]-28-norlup-20(29)-ene], the half-inhibitory concentration (IC50) with HIVIIIB [1] and in the assay on HIVIIIB [2] was less than 199 nM throughout.
Turning to `C=C(C)[C@@H]1CC[C@]2(NC(=O)Cc3ccccc3)CC[C@]3(C)[C@H](CC[C@@H]4[C@@]5(C)CC[C@H](OC(=O)CC(C)(C)C(=O)O)C(C)(C)[C@@H]5CC[C@]43C)[C@@H]12` [Cpd 13-6, 3β-O-(3′,3′-Dimethylsuccinyl)-17β-phenylacetylamino-28-norlup-20(29)-ene], the IC50 with HIVIIIB [1] and with HIVIIIB [2] was less than 199 nM each time.
As to `C=C(C)[C@@H]1CC[C@]2(NC(=O)OC)CC[C@]3(C)[C@H](CC[C@@H]4[C@@]5(C)CC[C@H](OC(=O)CC(C)(C)C(=O)O)C(C)(C)[C@@H]5CC[C@]43C)[C@@H]12` [Cpd 14-1, 3β-O-(3′,3′-Dimethylsuccinyl)-17β-methoxycarbonylamino-28-norlup-20(29)-ene], the 50% inhibitory concentration (IC50) with HIVIIIB [1] and in the assay with HIVIIIB [2] was less than 199 nM throughout.
As to `C=C(C)[C@@H]1CC[C@]2(NC(=O)NC(C)(C)C)CC[C@]3(C)[C@H](CC[C@@H]4[C@@]5(C)CC[C@H](OC(=O)CC(C)(C)C(=O)O)C(C)(C)[C@@H]5CC[C@]43C)[C@@H]12` [Cpd 11-2, 3β-O-(3′,3′-Dimethylsuccinyl)-17β-[N′-(tert-butyl)ureido]-28-norlup-20(29)-ene], the IC50 with HIVIIIB [1] and with HIVIIIB [2] was less than 199 nM throughout.
With `C=C(C)[C@@H]1CC[C@]2(NC(=O)C3CC3)CC[C@]3(C)[C@H](CC[C@@H]4[C@@]5(C)CC[C@H](OC(=O)CC(C)(C)C(=O)O)C(C)(C)[C@@H]5CC[C@]43C)[C@@H]12` [Cpd 13-9, 17β-(Cyclopropanecarbonyl-amino)-3β-O-(3′,3′-dimethylsuccinyl)-28-norlup-20(29)-ene], the IC50 in the assay with HIVIIIB [1] and with HIVIIIB [2] was less than 199 nM each time.
